Laboratory results taken from PMC8764865, “Activity-based protein profiling reveals dynamic substrate-specific cellulase secretion by saprotrophic basidiomycetes” (Biotechnology for Biofuels and Bioproducts, 2022).

Legend:
Format in all cases: biochemical
[1] = biological target: T1, LsGH10A (Trametes sp., UniProt Z9JQD7XB80); test: continuous fluorogenic inhibition kinetics (4-methylumbelliferyl glycoside); details: non-covalent; no covalent inhibition discernible after 1 h; 50 mM NaOAc pH 4.0 final; inhibition assay, printed only as affinity
T1 construct: native signal peptide removed (alpha-factor secretion signal), C-terminal 6xHis, codon-optimised, Pichia pastoris X-33; later-eluting Superdex 200 peak

[2] = biological target: T2, TlGH12A (Pilatotrama ljubarskyi, UniProt Z9OT85M9A7); test: continuous fluorogenic inhibition kinetics, 4MU-GG substrate; details: covalent, time-dependent; up to 50 uM inhibitor; 0.4 mM substrate stock mixed 1:1; NaOAc pH 4.0
T2 construct: native signal peptide removed (alpha-factor secretion signal), C-terminal 6xHis, codon-optimised, Pichia pastoris X-33
T2 sequence (Z9OT85M9A7 1-225): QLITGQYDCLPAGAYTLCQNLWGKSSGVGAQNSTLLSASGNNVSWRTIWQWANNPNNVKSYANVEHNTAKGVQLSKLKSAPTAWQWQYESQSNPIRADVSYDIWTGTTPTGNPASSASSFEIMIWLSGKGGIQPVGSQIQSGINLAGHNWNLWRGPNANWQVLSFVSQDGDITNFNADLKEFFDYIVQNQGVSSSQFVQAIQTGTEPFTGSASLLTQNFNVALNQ

[3] = biological target: T1, LsGH10A; test: as above; details: covalent, time-dependent; up to 50 uM inhibitor; 0.4 mM substrate stock mixed 1:1; NaOAc pH 4.0
[4] = biological target: T3, LsGH5_5A (Trametes sp., UniProt Z9YXY2URI3); test: as above; details: covalent, time-dependent; up to 50 uM inhibitor; 0.4 mM substrate stock mixed 1:1; NaOAc pH 4.0
T3 construct: native signal peptide removed (alpha-factor secretion signal), C-terminal 6xHis (intact), codon-optimised, Pichia pastoris X-33
T3 sequence (Z9YXY2URI3 1-398): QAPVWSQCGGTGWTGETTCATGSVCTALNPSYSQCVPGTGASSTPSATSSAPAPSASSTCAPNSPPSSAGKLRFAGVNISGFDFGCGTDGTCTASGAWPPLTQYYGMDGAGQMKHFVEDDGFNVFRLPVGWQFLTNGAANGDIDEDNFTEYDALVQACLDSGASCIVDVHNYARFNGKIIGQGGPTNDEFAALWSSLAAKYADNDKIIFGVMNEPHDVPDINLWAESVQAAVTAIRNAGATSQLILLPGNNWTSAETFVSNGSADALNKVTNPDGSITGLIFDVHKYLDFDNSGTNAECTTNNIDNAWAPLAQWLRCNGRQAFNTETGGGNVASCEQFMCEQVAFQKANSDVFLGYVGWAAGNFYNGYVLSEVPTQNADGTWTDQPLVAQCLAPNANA

SMILES | Ki [1] | ki/KI [2] | ki/KI [3] | ki/KI [4]
O=C(CCCC[C@@H]1SC[C@@H]2NC(=O)N[C@@H]21)NCCCCCCCCN1[C@H]2[C@H](O)[C@@H](O)[C@H](O[C@@H]3OC[C@@H](O)[C@H](O)[C@H]3O)C[C@H]21 (stereo partly shown) [Biotin-ABP-Xyn] | 21 nM | – | – | –
OC[C@H]1[C@H]2O[C@H]2[C@H](O)[C@@H](O)[C@@H]1O[C@@H]1O[C@H](CO)[C@@H](O)[C@H](O)[C@H]1O [GGcyc] | – | clear time-dependent inhibition of LsGH5_5A, TlGH12A, and LsGH10A by GGcyc | clear time-dependent inhibition of LsGH5_5A, TlGH12A, and LsGH10A by GGcyc | clear time-dependent inhibition of LsGH5_5A, TlGH12A, and LsGH10A by GGcyc
